Data as given in ChEMBL document CHEMBL1131847, “Opsin shift in an aldolase antibody” (Bioorg Med Chem Lett, 1999).
Activity calls are given as the source filed them. The calls are words filed in the database; no cut-off is given here.

Assay: Compound (1.7 x 10E-3 M) was evaluated for the formation of all-trans retinal schiff base with Lysine residue which exhibits significant Opsin shift of naturally occurring visual pigments; Active
Assay type: functional

CC1=C(/C=C/C(C)=C/C=C/C(C)=C/C=O)C(C)(C)CCC1
Opsin shift activity: Active
